Data from ChEMBL document CHEMBL3132769, “Fragment growing to retain or alter the selectivity of anchored kinase hinge-binding fragments” (Medchemcomm, 2014).

How the values were obtained:
[1] = target: T1, Mitogen-activated protein kinase 13 (Homo sapiens) (UniProt O15264); assay: Inhibition of human full length p38 delta expressed in Escherichia coli cell assessed as substrate phosphorylation using fluorescence-labelled peptides as substrate at 0.06 uM after 90 mins by microfluidic peptide phosphorylation assay
T1 sequence (whole entry): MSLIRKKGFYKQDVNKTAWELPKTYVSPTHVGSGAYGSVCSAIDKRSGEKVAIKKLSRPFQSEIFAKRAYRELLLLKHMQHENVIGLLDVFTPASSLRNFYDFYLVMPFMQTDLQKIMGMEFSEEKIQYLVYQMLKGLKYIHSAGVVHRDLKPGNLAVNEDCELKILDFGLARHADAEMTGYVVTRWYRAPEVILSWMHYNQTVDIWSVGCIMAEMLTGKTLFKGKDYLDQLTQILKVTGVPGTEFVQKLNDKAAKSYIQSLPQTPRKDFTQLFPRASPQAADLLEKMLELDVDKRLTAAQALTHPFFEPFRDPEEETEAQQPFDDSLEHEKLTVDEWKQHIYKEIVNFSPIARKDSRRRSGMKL

[2] = target: Platelet-derived growth factor receptor alpha (Homo sapiens) (UniProt P16234); assay: Inhibition of human PDGFR alpha catalytic domain expressed in baculovirus assessed as substrate phosphorylation using fluorescence-labelled peptides as substrate at 420 uM after 90 mins by microfluidic peptide phosphorylation assay
Platelet-derived growth factor receptor alpha (Homo sapiens), sequence (P16234 whole entry, the tested form may be a part): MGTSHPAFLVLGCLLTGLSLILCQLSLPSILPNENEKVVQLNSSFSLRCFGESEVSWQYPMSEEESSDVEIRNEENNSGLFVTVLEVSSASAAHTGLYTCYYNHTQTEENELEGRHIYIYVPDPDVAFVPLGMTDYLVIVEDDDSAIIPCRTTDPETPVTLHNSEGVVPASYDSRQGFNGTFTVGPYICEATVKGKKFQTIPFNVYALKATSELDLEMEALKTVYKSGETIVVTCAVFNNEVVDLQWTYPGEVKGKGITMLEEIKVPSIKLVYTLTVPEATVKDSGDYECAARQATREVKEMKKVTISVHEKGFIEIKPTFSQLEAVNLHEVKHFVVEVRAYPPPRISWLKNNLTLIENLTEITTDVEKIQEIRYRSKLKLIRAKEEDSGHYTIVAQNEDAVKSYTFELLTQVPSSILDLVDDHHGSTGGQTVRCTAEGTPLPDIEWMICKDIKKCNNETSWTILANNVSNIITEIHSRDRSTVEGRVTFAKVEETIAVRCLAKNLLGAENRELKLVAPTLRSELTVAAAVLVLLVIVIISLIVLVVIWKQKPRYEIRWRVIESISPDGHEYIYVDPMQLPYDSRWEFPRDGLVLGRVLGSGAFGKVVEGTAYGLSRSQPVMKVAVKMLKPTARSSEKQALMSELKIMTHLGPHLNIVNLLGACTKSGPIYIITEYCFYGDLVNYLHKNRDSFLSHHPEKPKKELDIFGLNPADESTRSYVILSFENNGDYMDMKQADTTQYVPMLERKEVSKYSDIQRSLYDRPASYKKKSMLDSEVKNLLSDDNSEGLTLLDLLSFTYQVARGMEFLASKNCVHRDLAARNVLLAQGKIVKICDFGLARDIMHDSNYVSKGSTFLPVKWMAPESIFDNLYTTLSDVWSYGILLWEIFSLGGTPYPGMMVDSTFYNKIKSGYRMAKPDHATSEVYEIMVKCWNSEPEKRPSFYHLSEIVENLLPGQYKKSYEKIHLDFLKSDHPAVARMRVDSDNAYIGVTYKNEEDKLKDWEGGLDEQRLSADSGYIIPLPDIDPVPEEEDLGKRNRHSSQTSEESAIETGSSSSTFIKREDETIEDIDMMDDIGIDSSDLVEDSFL

[3] = target: Epidermal growth factor receptor (Homo sapiens) (UniProt P00533); assay: Inhibition of human EGFR catalytic domain expressed in baculovirus assessed as substrate phosphorylation using fluorescence-labelled peptides as substrate at 0.1 uM after 90 mins by microfluidic peptide phosphorylation assay
Epidermal growth factor receptor (Homo sapiens), sequence (P00533 whole entry, the tested form may be a part): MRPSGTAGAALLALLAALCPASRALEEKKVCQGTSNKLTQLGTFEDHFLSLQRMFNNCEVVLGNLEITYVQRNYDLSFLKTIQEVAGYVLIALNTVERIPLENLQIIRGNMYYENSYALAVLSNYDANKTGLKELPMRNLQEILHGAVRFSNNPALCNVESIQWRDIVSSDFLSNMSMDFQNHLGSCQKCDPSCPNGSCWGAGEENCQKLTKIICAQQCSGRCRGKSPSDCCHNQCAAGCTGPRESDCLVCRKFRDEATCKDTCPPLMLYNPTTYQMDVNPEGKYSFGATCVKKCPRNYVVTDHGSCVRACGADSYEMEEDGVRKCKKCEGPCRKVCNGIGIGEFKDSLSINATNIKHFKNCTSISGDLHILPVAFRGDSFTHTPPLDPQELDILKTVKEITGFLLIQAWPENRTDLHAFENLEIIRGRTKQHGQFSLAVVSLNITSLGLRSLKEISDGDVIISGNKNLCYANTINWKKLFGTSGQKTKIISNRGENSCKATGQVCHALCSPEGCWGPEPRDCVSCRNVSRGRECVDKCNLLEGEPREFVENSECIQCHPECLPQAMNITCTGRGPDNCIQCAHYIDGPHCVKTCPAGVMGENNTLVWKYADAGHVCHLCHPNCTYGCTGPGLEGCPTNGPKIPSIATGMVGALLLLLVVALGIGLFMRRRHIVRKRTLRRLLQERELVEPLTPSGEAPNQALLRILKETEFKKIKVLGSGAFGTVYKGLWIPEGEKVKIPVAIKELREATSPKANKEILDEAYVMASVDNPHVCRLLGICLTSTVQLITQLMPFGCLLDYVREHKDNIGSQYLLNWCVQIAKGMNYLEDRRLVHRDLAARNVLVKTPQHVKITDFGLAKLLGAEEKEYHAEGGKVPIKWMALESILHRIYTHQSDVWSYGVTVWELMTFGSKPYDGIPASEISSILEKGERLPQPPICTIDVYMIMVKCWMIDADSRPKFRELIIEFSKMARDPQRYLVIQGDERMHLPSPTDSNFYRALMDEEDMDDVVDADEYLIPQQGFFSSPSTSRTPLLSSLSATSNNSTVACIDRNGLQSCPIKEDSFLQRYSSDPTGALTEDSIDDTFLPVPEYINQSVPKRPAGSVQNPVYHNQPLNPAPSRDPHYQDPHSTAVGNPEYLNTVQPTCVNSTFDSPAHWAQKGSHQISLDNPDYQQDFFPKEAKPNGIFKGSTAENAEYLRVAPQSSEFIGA

[4] = target: T2, Cytoplasmic tyrosine-protein kinase BMX (Homo sapiens) (UniProt P51813); assay: Inhibition of human full length BMX expressed in baculovirus assessed as substrate phosphorylation using fluorescence-labelled peptides as substrate at 9 uM after 90 mins by microfluidic peptide phosphorylation assay
T2 sequence (whole entry): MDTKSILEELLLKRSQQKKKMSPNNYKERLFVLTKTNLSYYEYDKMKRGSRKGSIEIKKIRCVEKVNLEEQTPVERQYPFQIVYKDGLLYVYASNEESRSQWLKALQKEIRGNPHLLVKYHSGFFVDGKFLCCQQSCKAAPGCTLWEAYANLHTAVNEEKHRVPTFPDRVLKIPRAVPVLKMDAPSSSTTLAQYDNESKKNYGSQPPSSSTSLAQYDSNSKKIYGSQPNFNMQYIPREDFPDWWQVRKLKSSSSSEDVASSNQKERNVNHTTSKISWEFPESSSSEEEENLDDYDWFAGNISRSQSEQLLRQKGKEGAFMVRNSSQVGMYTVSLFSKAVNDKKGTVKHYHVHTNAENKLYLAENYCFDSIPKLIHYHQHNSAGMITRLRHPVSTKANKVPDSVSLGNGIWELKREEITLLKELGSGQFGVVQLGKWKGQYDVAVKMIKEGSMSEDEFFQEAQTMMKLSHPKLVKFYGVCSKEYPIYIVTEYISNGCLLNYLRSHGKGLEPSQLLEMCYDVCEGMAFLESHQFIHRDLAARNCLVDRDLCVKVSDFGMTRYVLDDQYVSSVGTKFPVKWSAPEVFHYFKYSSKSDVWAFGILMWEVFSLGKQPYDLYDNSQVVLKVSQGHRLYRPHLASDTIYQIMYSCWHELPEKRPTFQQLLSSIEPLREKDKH

[5] = target: MAP/microtubule affinity-regulating kinase 3 (Homo sapiens) (UniProt P27448); assay: Inhibition of human full length c-TAK1 expressed in Escherichia coli cell assessed as substrate phosphorylation using fluorescence-labelled peptides as substrate at 9 uM after 90 mins by microfluidic peptide phosphorylation assay
[6] = target: Calcium/calmodulin-dependent protein kinase type II subunit beta (Homo sapiens) (UniProt Q13554); assay: Inhibition of human CAMK2 beta catalytic domain expressed in baculovirus assessed as substrate phosphorylation using fluorescence-labelled peptides as substrate at 70 uM after 90 mins by microfluidic peptide phosphorylation assay
[7] = target: Mitogen-activated protein kinase 3 (Homo sapiens) (UniProt P27361); assay: Inhibition of human full length ERK1 expressed in Escherichia coli cell assessed as substrate phosphorylation using fluorescence-labelled peptides as substrate at 70 uM after 90 mins by microfluidic peptide phosphorylation assay
Mitogen-activated protein kinase 3 (Homo sapiens), sequence (P27361 whole entry): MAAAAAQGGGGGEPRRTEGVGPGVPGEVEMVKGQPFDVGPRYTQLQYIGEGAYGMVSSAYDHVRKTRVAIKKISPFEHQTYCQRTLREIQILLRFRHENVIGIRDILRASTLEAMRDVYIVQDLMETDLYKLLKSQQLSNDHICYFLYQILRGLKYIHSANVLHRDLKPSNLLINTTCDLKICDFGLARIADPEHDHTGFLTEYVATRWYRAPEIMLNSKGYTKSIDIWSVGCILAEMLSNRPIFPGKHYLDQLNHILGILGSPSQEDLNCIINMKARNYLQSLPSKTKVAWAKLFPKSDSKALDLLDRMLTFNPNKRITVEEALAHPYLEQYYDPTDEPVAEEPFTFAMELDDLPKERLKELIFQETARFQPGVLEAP

[8] = target: Tyrosine-protein kinase BTK (Homo sapiens) (UniProt Q06187); assay: Inhibition of human full length BTK expressed in baculovirus assessed as substrate phosphorylation using fluorescence-labelled peptides as substrate at 70 uM after 90 mins by microfluidic peptide phosphorylation assay
[9] = target: Tyrosine-protein kinase ABL1 (Homo sapiens) (UniProt P00519); assay: Inhibition of human full-length ABL expressed in baculovirus assessed as substrate phosphorylation using fluorescence-labelled peptides as substrate at 8 uM after 90 mins by microfluidic peptide phosphorylation assay
Tyrosine-protein kinase ABL1 (Homo sapiens), sequence (P00519 whole entry, the tested form may be a part): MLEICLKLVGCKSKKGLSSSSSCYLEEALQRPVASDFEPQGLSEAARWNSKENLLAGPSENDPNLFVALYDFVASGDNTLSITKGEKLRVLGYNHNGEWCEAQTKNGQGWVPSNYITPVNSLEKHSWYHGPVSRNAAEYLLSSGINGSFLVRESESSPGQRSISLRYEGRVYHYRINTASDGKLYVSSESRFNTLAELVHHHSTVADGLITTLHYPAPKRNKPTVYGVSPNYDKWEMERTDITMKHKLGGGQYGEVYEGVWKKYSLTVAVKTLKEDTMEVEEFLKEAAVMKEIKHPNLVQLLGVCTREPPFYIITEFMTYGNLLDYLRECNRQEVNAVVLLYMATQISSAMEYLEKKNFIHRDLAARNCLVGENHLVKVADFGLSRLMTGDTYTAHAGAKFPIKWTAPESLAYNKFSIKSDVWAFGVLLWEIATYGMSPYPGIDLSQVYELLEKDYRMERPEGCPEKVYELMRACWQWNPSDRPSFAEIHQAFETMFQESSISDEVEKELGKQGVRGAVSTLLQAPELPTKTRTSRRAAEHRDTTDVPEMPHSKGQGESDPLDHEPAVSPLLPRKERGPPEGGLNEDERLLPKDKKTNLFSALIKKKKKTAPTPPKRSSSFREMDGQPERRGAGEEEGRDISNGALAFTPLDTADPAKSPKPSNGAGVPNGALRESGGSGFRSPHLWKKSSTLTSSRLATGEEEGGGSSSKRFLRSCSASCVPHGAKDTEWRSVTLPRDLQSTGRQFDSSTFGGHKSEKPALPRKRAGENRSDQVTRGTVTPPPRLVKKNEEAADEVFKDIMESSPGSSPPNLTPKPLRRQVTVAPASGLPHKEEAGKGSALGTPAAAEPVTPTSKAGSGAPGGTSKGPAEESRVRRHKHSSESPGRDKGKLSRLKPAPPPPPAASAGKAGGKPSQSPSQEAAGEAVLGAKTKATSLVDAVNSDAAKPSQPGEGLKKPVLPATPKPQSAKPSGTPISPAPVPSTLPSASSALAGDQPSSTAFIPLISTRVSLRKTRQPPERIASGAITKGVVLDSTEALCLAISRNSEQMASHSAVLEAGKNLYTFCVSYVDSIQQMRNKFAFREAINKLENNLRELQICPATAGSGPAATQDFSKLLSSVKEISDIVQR

[10] = target: Protein kinase C theta type (Homo sapiens) (UniProt Q04759); assay: Inhibition of human truncated PKC theta expressed in baculovirus assessed as substrate phosphorylation using fluorescence-labelled peptides as substrate at 8 uM after 90 mins by microfluidic peptide phosphorylation assay
[11] = target: Protein kinase C beta type (Homo sapiens) (UniProt P05771); assay: Inhibition of human full length PKC beta2 expressed in baculovirus assessed as substrate phosphorylation using fluorescence-labelled peptides as substrate at 1000 uM after 90 mins by microfluidic peptide phosphorylation assay
Protein kinase C beta type (Homo sapiens), sequence (P05771 2-671 limits assumed): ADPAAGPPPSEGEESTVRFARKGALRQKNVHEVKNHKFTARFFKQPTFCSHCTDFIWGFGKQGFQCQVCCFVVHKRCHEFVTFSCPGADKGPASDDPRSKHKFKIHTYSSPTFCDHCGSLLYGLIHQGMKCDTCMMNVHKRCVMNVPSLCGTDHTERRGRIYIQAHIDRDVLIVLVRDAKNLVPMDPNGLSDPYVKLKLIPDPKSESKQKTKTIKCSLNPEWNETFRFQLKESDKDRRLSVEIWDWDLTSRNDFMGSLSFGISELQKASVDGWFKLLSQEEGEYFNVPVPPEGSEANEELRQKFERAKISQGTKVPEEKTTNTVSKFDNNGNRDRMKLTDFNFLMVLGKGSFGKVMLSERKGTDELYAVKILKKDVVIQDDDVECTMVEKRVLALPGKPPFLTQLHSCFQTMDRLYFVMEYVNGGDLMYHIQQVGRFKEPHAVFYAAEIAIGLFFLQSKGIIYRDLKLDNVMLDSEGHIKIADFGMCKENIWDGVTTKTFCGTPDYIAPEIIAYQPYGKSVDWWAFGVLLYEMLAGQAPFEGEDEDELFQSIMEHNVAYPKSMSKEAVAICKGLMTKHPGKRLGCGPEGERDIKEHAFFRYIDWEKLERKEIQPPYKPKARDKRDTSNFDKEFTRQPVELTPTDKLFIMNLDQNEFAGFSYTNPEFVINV

[12] = target: Protein kinase C eta type (Homo sapiens) (UniProt P24723); assay: Inhibition of human truncated PKC eta expressed in baculovirus assessed as substrate phosphorylation using fluorescence-labelled peptides as substrate at 1000 uM after 90 mins by microfluidic peptide phosphorylation assay
[13] = target: T3, Protein kinase C zeta type (Homo sapiens) (UniProt Q05513); assay: Inhibition of human full length PKC zeta expressed in baculovirus assessed as substrate phosphorylation using fluorescence-labelled peptides as substrate at 2 uM after 90 mins by microfluidic peptide phosphorylation assay
T3 sequence (whole entry): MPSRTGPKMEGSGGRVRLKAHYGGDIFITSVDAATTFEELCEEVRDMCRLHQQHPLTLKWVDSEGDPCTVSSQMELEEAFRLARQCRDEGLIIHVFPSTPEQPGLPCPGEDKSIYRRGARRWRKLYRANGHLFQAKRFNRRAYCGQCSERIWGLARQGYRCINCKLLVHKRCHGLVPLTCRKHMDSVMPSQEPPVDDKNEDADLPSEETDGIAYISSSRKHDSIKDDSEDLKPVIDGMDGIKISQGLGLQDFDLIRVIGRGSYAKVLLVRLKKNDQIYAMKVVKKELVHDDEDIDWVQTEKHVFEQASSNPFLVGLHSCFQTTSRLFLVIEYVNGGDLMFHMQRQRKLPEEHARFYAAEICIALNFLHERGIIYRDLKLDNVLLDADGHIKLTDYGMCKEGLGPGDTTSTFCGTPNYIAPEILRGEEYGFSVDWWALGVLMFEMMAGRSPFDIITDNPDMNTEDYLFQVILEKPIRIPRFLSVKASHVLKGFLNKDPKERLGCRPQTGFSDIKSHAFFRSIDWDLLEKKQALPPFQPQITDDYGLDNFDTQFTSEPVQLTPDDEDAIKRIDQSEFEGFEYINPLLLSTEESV

## NC1(Cc2ccc(Cl)cc2)CCN(c2ncnc3[nH]ccc23)CC1
[1]
  inhibition: 0%

## c1nc(N2CCOCC2)c2nc[nH]c2n1
[2]
  inhibition: 32.5%

## C[C@H](CN(C)C)Oc1nc(Nc2cc3cccc(Cl)c3cn2)cnc1C#N
[3]
  inhibition: 0.5%

## NCC1CN(c2ncnc3[nH]c4cnccc4c23)CCO1 (stereo not drawn)
[4]
  inhibition: 11%
[5]
  inhibition: 30%

## CNCc1ccc(-c2ncnc3[nH]cnc23)cc1
[6]
  inhibition: 6.5%
[7]
  inhibition: 28.5%
[8]
  inhibition: 0%

## NCC1CCN(c2ncnc3[nH]ccc23)CC1
[9]
  inhibition: 57.5%
[10]
  inhibition: 67.5%

## c1cnc2[nH]ccc2c1
[11]
  inhibition: 21%
[12]
  inhibition: 52%

## NC1CCN(c2ncnc3[nH]ccc23)CC1
[13]
  inhibition: 20.5%
